Experimental data reported in ChEMBL document CHEMBL1150036, “Functionalized aliphatic P2/P2 analogs of HIV-1 protease inhibitor DMP323” (Bioorg Med Chem Lett, 1997).
pKi: −log10 of the molar value. Calls of active or inactive are those of the source. No cut-off for these calls is given here.

How the values were obtained:
MT2 = assay: Antiviral activity assessed in a cell based assay measuring the inhibition of viral RNA production in HIV-1-infected MT-2 cells at concentrations of up to 50 ug/mL; not active; format: functional; details: Homo sapiens
[1] = target: Human immunodeficiency virus type 1 protease (Human immunodeficiency virus 1, UniProt Q72874); assay: Inhibitory activity against HIV-1 protease
[2] = system: Human immunodeficiency virus 1; assay: Inhibition of viral RNA production in HIV-1-infected MT-2 cells.; format: functional; details: Human immunodeficiency virus 1, MT2

IC90 [2]	Compound	IC90 (MT2)	pKi [1]
	CNC(=O)NCCCCCN1C(=O)N(CCCCCNC(=O)NC)[C@H](Cc2ccccc2)[C@H](O)[C@@H](O)[C@H]1Cc1ccccc1	inactive	6.57
	NCCCCCN1C(=O)N(CCCCCN)[C@H](Cc2ccccc2)[C@H](O)[C@@H](O)[C@H]1Cc1ccccc1	inactive	5.90
17200 nM	O=C1N(CCCCCCCCO)[C@H](Cc2ccccc2)[C@H](O)[C@@H](O)[C@@H](Cc2ccccc2)N1CCCCCCCCO		6.30
	CC(=O)NCCCCCN1C(=O)N(CCCCCNC(C)=O)[C@H](Cc2ccccc2)[C@H](O)[C@@H](O)[C@H]1Cc1ccccc1	inactive	6.46
	NCCCCN1C(=O)N(CCCCN)[C@H](Cc2ccccc2)[C@H](O)[C@@H](O)[C@H]1Cc1ccccc1	inactive	5.90
3130 nM	O=C(Cc1cccnc1)NCCCCCN1C(=O)N(CCCCCNC(=O)Cc2cccnc2)[C@H](Cc2ccccc2)[C@H](O)[C@@H](O)[C@H]1Cc1ccccc1		8.05
	CS(=O)(=O)NCCCCCN1C(=O)N(CCCCCNS(C)(=O)=O)[C@H](Cc2ccccc2)[C@H](O)[C@@H](O)[C@H]1Cc1ccccc1	inactive	6.57
264 nM	O=C1N(CCCCCCO)[C@H](Cc2ccccc2)[C@H](O)[C@@H](O)[C@@H](Cc2ccccc2)N1Cc1ccc2ccccc2c1		8.77
108 nM	O=C1N(CCCCCO)[C@H](Cc2ccccc2)[C@H](O)[C@@H](O)[C@@H](Cc2ccccc2)N1Cc1ccc(CO)cc1		10.00
	O=C(NCCCCCN1C(=O)N(CCCCCNC(=O)c2ccc(F)cc2)[C@H](Cc2ccccc2)[C@H](O)[C@@H](O)[C@H]1Cc1ccccc1)c1ccc(F)cc1	inactive	7.74
398 nM	O=C1N(CCCCCO)[C@H](Cc2ccccc2)[C@H](O)[C@@H](O)[C@@H](Cc2ccccc2)N1Cc1ccccc1		9.17
76 nM	O=C1N(CCCCCO)[C@H](Cc2ccccc2)[C@H](O)[C@@H](O)[C@@H](Cc2ccccc2)N1Cc1cccc(CO)c1		10.24
	O=C(NCCCCCN1C(=O)N(CCCCCNC(=O)c2ccccc2)[C@H](Cc2ccccc2)[C@H](O)[C@@H](O)[C@H]1Cc1ccccc1)c1ccccc1	inactive	7.23
	COCCCCCN1C(=O)N(CCCCCOC)[C@H](Cc2ccccc2)[C@H](O)[C@@H](O)[C@H]1Cc1ccccc1	inactive	7.02
36 nM	O=C1N(CCCCCO)[C@H](Cc2ccccc2)[C@H](O)[C@@H](O)[C@@H](Cc2ccccc2)N1Cc1cccc(O)c1		10.09
	O=C(O)CCCCCN1C(=O)N(CCCCCC(=O)O)[C@H](Cc2ccccc2)[C@H](O)[C@@H](O)[C@H]1Cc1ccccc1	inactive	9.62
1510 nM	O=C1N(CCCCCCO)[C@H](Cc2ccccc2)[C@H](O)[C@@H](O)[C@@H](Cc2ccccc2)N1CCCCCCO		9.33
	O=C1N(CCCO)[C@H](Cc2ccccc2)[C@H](O)[C@@H](O)[C@@H](Cc2ccccc2)N1CCCO	inactive	7.29
199 nM	O=C1N(CCCCCO)[C@H](Cc2ccccc2)[C@H](O)[C@@H](O)[C@@H](Cc2ccccc2)N1Cc1ccc2ccccc2c1		9.62
365 nM	CCOC(=O)c1cccc(CN2C(=O)N(CCCCCO)[C@H](Cc3ccccc3)[C@H](O)[C@@H](O)[C@H]2Cc2ccccc2)c1		9.14

Compound	IC90 [2]	IC90 (MT2)	pKi [1]
COC(=O)CCCCCN1C(=O)N(CCCCCC(=O)OC)[C@H](Cc2ccccc2)[C@H](O)[C@@H](O)[C@H]1Cc1ccccc1	30900 nM		7.54
O=C(NCCCCCN1C(=O)N(CCCCCNC(=O)c2ccncc2)[C@H](Cc2ccccc2)[C@H](O)[C@@H](O)[C@H]1Cc1ccccc1)c1ccncc1	9900 nM		7.80
O=C(NCCCCCN1C(=O)N(CCCCCNC(=O)c2cccc(F)c2)[C@H](Cc2ccccc2)[C@H](O)[C@@H](O)[C@H]1Cc1ccccc1)c1cccc(F)c1	8770 nM		7.85
O=C1N(CCCCO)[C@H](Cc2ccccc2)[C@H](O)[C@@H](O)[C@@H](Cc2ccccc2)N1CCCCO	22700 nM		7.38
O=C1N(CCCCCO)[C@H](Cc2ccccc2)[C@H](O)[C@@H](O)[C@@H](Cc2ccccc2)N1CC1CC1	814 nM		9.00
O=C1N(CCCCCO)[C@H](Cc2ccccc2)[C@H](O)[C@@H](O)[C@@H](Cc2ccccc2)N1CCCCCO	953 nM		8.85
O=C1N(CCCCCCCO)[C@H](Cc2ccccc2)[C@H](O)[C@@H](O)[C@@H](Cc2ccccc2)N1CCCCCCCO	9010 nM		7.47
